The values below come from patent US20260015451A1, “FOAMED-RESIN-FORMABLE COMPOSITION, POLYUREA-BASED RESIN FOAM BODY, AND POLYUREA-BASED RESIN FOAM BODY PRODUCTION METHOD” (MITSUBISHI GAS CHEMICAL COMPANY, INC., priority 2022, published 2026).

Series [1] is described as follows: Maximum carbon dioxide (CO2) release temperature by DSC. To be noted: after 24 hours in air at 23° C. and 50% RH; heating rate 10° C./minute, nitrogen. It is filed as physicochemical. Here is the method:
A carbon dioxide detector and a Petri dish were placed in an openable desiccator (inner dimension: 370 mm × 260 mm × 272 mm). Subsequently, the cyclic polyamine compound (5 mmol) was added to the Petri dish in the desiccator and the door was immediately closed to leave the cyclic polyamine compound to stand in the desiccator in an air environment at 23° C. and 50% RH for 24 hours. The initial concentration of carbon dioxide was adjusted to about 400 ppm.
Then the cyclic polyamine compound was taken out of the desiccator to give a cyclic polyamine compound with carbon dioxide absorbed. The maximum carbon dioxide release temperature of the cyclic polyamine compound with carbon dioxide absorbed was measured by subjecting the cyclic polyamine compound to DSC as described below. First, differential scanning calorimetry of the cyclic polyamine compound was performed under conditions of a temperature range of 23 to 250° C., a heating rate of 10° C./minute and a nitrogen atmosphere using a differential thermogravimeter (product name DTG-60 made by Shimadzu Corporation). The temperature at which the amount of heat absorbed due to the desorption of carbon dioxide was the maximum was calculated from the DSC curve obtained, and the temperature was determined as the maximum carbon dioxide release temperature of the cyclic polyamine compound.
(In general: DSC measures the heat that a sample takes up or gives off during a temperature scan.)

Series [2] can be described thus: Percentage increase of mass after standing in air (absorption of carbon dioxide). It is filed as physicochemical. As to conditions: air environment at 23° C. and 50% RH for a week. The protocol:
A cyclic polyamine compound, MXDA, was put in a container and left to stand in an air environment at 23° C. and 50% RH for a week. By doing so, MXDA and carbon dioxide in the air were reacted to give a reaction product of MXDA and carbon dioxide (carbonate of MXDA). At that stage, to suppress uneven reaction, the container in which the cyclic polyamine compound was placed was shaken as necessary so as not to leave unreacted MXDA. The water content in the resulting reaction product (carbonate of MXDA) was 0% by mass.
Next, the amount of increase of the mass of MXDA was measured, and the percentage increase of the mass of the cyclic polyamine compound was calculated by the following equation.
Percentage increase of mass of cyclic polyamine compound [% by mass]=100×amount of increase of mass of cyclic polyamine compound (g)/(initial mass of cyclic polyamine compound (g)[…])

On to `NCc1cccc(CN)c1` [MXDA, metaxylylenediamine], for which the “maximum carbon dioxide (CO2) release temperature” value in series [1] worked out at 135.5 °C. For the same compound, the “percentage increase of the mass” value in series [2] is 24.1 % by mass.
